PubChem BioAssay (NCI)
Where “and” joins values, the source holds several entries; their conditions need not be identical. Equal values may be shown once.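 1) Cells in 96-well plates. 2) Compound, 48 h, 5 concentrations. 3) Linear interpolation between surrounding doses. 4) Unreached endpoint = highest concentration. The concentration for 50% growth inhibition is given as GI50. TGI is the concentration that stops growth completely.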

How the values were obtained:
Test in all cases: growth of human tumour cells (NCI), 48 h
[1] = test system: SN12C renal
[2] = test system: M14 melanoma
[3] = test system: SF-539 CNS
[4] = test system: SF-295 CNS
[5] = test system: HOP-62 NSCLC
[6] = test system: RXF 393 renal
[7] = test system: 786-0 renal
[8] = test system: SK-MEL-28 melanoma
[9] = test system: HL-60(TB) leukemia
[10] = test system: SF-268 CNS

Row | SMILES | GI50 [1] | TGI [1] | GI50 [2] | TGI [2] | GI50 [3] | TGI [3] | GI50 [4] | TGI [4] | GI50 [5] | TGI [5] | GI50 [6] | TGI [6] | GI50 [7] | TGI [7] | GI50 [8] [µM] | TGI [8] | GI50 [9] | TGI [9] | GI50 [10] | TGI [10]
1 | CN1CCN(Cc2ccc(NC(=O)c3cncc(C#Cc4ncc5ccccn45)c3)cc2C(F)(F)F)CC1 | 1.26 µM | 4.41 µM | 1.01 µM | 3.98 µM | 0.471 µM | 1.91 µM | 1.35 µM | 4.75 µM | 1.45 µM | 4.77 µM | 1.09 µM | 3.73 µM | 3 µM | 6.4 µM | 2.82 | 6.19 µM | 0.845 µM | 2.76 µM | 2.06 µM | 7.22 µM
2 | COc1cc[nH]c1/C=C1\C(=O)Nc2ccc([N+](=O)[O-])c(N3CC[C@@H](O)C3)c21 | 0.211 µM | 4 µM | 0.399 µM | 1.13 µM | 0.102 µM | 0.386 µM | 0.128 µM | 3.4 µM | 0.181 µM | 1.88 µM | 0.0566 µM | 0.146 µM | 0.186 µM | 3.56 µM | 0.277 | 1.2 µM | 0.0831 µM | 0.213 µM | 0.255 µM | 1.29 µM
3 | CC1CC2(C)CC(=O)C1C1C(=O)N(CCN3CCOCC3)C(=O)C12 (stereo unspecified) | > 100 µM | > 100 µM | > 100 µM | > 100 µM | > 100 µM | > 100 µM | > 100 µM | > 100 µM | > 100 µM | > 100 µM | > 100 µM | > 100 µM | > 100 µM | > 100 µM | > 100 | > 100 µM | > 100 µM | > 100 µM | > 100 µM | > 100 µM
4 | C=CC(=O)Nc1cccc(Nc2nc(Nc3ccc(N4CCN(C(C)=O)CC4)cc3OC)ncc2C(F)(F)F)c1 | 4.02 µM and 2.95 µM | > 10 µM and 54.8 µM | 3.67 µM and 2.73 µM | > 100 µM | 4.47 µM and 3.17 µM | > 10 µM and 14.2 µM | 6.82 µM and 8.18 µM | > 10 µM and 23.1 µM | 6.52 µM and 6.2 µM | > 10 µM and 25.9 µM | 2.83 µM and 2.17 µM | > 10 µM and 10.1 µM | 2.67 µM and 1.56 µM | > 10 µM and 12.8 µM | 8.43 | > 93.1 µM | 1.26 µM and 2.26 µM | > 34 µM | 5.29 µM and 3.19 µM | > 10 µM and 26.2 µM
5 | ClCCCN1CCCCC1CCl (stereo unspecified) |  | > 100 µM |  | > 100 µM |  | > 100 µM |  | > 100 µM |  | > 100 µM |  | > 100 µM |  | > 100 µM |  | > 100 µM |  | > 100 µM |  | > 100 µM
6 | CCOc1ccccc1NC(=O)C(=O)c1c(O)c2ccc(O)cc2oc1=O |  | > 100 µM |  | > 100 µM |  | > 100 µM |  | > 100 µM |  | > 100 µM |  | > 100 µM |  | > 100 µM |  | > 100 µM |  | > 100 µM |  | > 100 µM
7 | CCCNC(=O)Nc1ccc2c(c1)Cc1cc(N(CCCl)CCCl)ccc1-2 |  | > 100 µM |  | > 100 µM |  | 66.2 µM |  | 44.2 µM |  | > 100 µM |  | 34.2 µM |  | > 100 µM |  | 35.7 µM |  | > 100 µM |  | > 100 µM
8 | COc1c(OC2OC(CO)C(O)C(O)C2O)cc2c(c1OC)-c1ccc(OC)c(=O)cc1[C@@H](NC(C)=O)CC2 (stereo partly specified) |  | > 100 µM |  | > 100 µM |  | > 100 µM |  | > 100 µM |  | > 100 µM |  | > 90.4 µM |  | > 100 µM |  | > 100 µM |  | > 100 µM |  | > 56.2 µM
9 | CNCC1CCn2c(c(C3=C(c4cn(C)c5ccccc45)C(=O)NC3=O)c3ccccc32)C1 (stereo unspecified) | 2.87 µM | 9.28 µM | 3.05 µM | 6.78 µM | 3.69 µM | 7.21 µM | 2.49 µM | 6.38 µM | 3.62 µM | 9.99 µM | 3.09 µM | 6.78 µM | 4.88 µM | 11 µM | 3.78 | 7.28 µM | 3.7 µM | 8.61 µM | 4.17 µM | 8.97 µM
10 | CCCCCCCCCCCCCCCC(N)c1ccccc1 (stereo unspecified) | 1.8 µM | 3.51 µM | 1.7 µM | 3.15 µM | 1.69 µM | 3.17 µM | 1.73 µM | 3.35 µM | 1.23 µM | 2.62 µM | 1.71 µM | 3.41 µM | 1.68 µM | 3.27 µM | 1.8 | 3.48 µM | 1.37 µM | 3.02 µM | 1.63 µM | 3.26 µM
11 | COc1ccc(-c2cc3c(N)ncnc3o2)cc1 | 14.8 µM | > 25 µM | > 19.1 µM | > 25 µM | > 25 µM | > 25 µM | > 25 µM | > 25 µM | > 25 µM | > 25 µM | > 25 µM | > 25 µM | > 25 µM | > 25 µM | > 25 | > 25 µM | > 25 µM | > 25 µM | 21.3 µM | > 25 µM
12 | CCC(=O)OCN1C(=O)C=CC1=O | 16.2 µM | 30.5 µM and 35.6 µM |  | 37.5 µM and 32.3 µM | 20.5 µM | 36.8 µM and 33.8 µM | 18.4 µM | 35.2 µM and > 66.6 µM |  | 37.6 µM and 34.9 µM |  | 30.6 µM and 30.5 µM | 21.7 µM | 41.4 µM and 11.3 µM |  | 33.3 µM and 33.4 µM | 17.3 µM | 70.4 µM and 8.36 µM | 19.1 µM | 36.9 µM and 41.3 µM
13 | CC1=C(C(=O)NCc2ccccc2)C(c2ccccc2O)C(C(=O)NCc2ccccc2)=C(C)N1 |  | 32.3 µM |  | 32.4 µM |  | 38.5 µM |  | 44.7 µM |  | 39.5 µM |  | 34.4 µM |  | 33.7 µM |  | 35.8 µM |  | 62.2 µM |  | 55.3 µM
14 | NC(N)=NC(N)=NCc1ccco1 | > 1250 µM | > 1250 µM | > 1250 µM | > 1250 µM | > 1250 µM | > 1250 µM | 321 µM | > 1250 µM | 780 µM | > 1250 µM | > 1250 µM | > 1250 µM | > 1250 µM | > 1250 µM | > 1250 | > 1250 µM | 390 µM | > 1250 µM | > 1250 µM | > 1250 µM
